Results from US10111842B2, “Eutectic solvents and uses thereof” (UNIVERSITY OF OSLO, priority 2014, dated 2018).

Legend:
[1] = Polarity (ENR) testing with Nile red; type: physicochemical; conditions: Nile red absorption maximum
Method: Polarity (ENR) testing of NADES was performed with Nile red (NR) as a solvatochromatic probe. A small amount of NR was added to each deep eutectic solvent. The recorded absorption maximum (λmax) of NR was applied in the formula ENR (kcal/mol^−1)=hcλmaxNA=28591/λmax where h is Planck's constant, c is the velocity of light and NA is Avogadro's number (Ogihara W, et al., Chem Lett 2004; 33: 1414-1415; Saxena R, et al., Chem Phys Lipids 2014; 183: 1-8).

[2] = test system: Enterococcus faecalis (ATCC 19433); assay: Bacterial studies, blue light 9.5 J/cm^2 or dark, drop plate CFU (Examples 4-6); type: cell-based
Method: (§1) Briefly, the components were mixed and dissolved in warm water (˜50° C.) before evaporation of the solvent at 45° C. for 15 min with a rotatory evaporator. The resulting NADES were transferred to polypropylene tubes with a tight cap. The individual components of each NADES were also prepared as solutions in MilliQ water in a concentration similar to the concentration in the final NADES preparation. All samples were diluted 1:1 with bacterial suspension (OD600 0.03) or 1:50, 1:100 and 1:200 with phosphate buffered saline (PBS, pH 7.4, Lonza, Verviers, Belgium) prior to dilution 1:1 with the bacterial suspension immediately before the bacterial studies.
(§2) The overnight cultures were centrifuged (4000 g, 22° C., 10 min), the medium replaced and diluted with PBS to OD600 0.03. The bacterial suspensions were mixed 1:1 with the samples described in the previous paragraph. A volume of 200 μl from each sample was transferred to the first and seventh well on each row on a 96 well plate (Nunclon sterile 96 well plate with lid, Thermo Fischer Scientific, Waltham, Mass.). Two identical plates were made each time, one for light treatment and one for dark controls. The plates containing E. faecalis or S. aureus samples were incubated for 10 min (37° C.), irradiated with blue light for 10 min (corresponding to 9.5 J/cm^2±10%) and incubated again for 10 min (37° C.). The plates containing E. coli samples were incubated for 30 min (37° C.), irradiated with blue light for 30 min (corresponding to 27 J/cm^2±10%) and incubated again for 30 min (37° C.). The plates containing the dark controls were treated similarly, but covered with aluminium foil during the irradiation period and placed beside the irradiation chamber. […] After treatment, the samples were diluted according to the 6×6 drop plate procedure, modified to 4×4 (each treatment was performed with four parallels). A volume of 15 μl from each dilution was then plated onto TSB agar plates, left to dry for a few minutes and incubated overnight (37° C.). Viable colony forming units (CFU)/ml were calculated by counting the CFUs, multiplying with the dilution factor and dividing by the application volume.
(§3) Briefly, the components of each NADES (see Table 7) were mixed and dissolved in a round flask with 50 ml of warm water (˜50° C.) before evaporation of the solvent at 45° C. for 15 min with a rotatory evaporator. TMAP (Frontier Scientific, Inc., Logan, Utah, USA) was then added to each NADES. […] The final concentration of TMAP was 1 nM. Samples of TMAP were also prepared in purified water (MilliQ) to be 1 nM after dilution 1:200 with PBS (pH 7.4, Lonza, Verviers, Belgium) or with a 6.8 mM citric acid solution (pH ˜4) and bacterial suspension.
(§4) TCPP (Frontier Scientific, Inc., Logan, Utah, USA) was added to each NADES. […] The final TCPP concentrations were 0.5 nM-1 μM. Samples of TCPP were also prepared in ethanol to be 1 nM-1 μM after dilution 1:200 with PBS (pH 7.4, Lonza, Verviers, Belgium) or with a 6.8 mM citric acid solution (pH ˜4) and bacterial suspension.

[3] = test system: Staphylococcus aureus (strain Newman); assay: as above; type: cell-based
Method: as §1, §2, §3, §4

[4] = test system: Escherichia coli (ATCC 25922); assay: Bacterial studies, blue light 27 J/cm^2 or dark, drop plate CFU (Examples 4-6); type: cell-based
Method: as §1, §2, §3, §4

[5] = test system: C. albicans (ATCC CRM-10231); assay: Antifungal toxicity studies, blue light 27 J/cm^2 or dark (Example 8); type: cell-based, Candida albicans
Method: Briefly, the components of each NADES (see Table 13) were mixed and dissolved in a round flask with 50 ml of warm water ( 50° C.) before evaporation of the solvent at 45° C. for 15 min with a rotatory evaporator. The pure […] 35 and NADES 39 were mixed undiluted or after dilution 1:50 with phosphate buffered saline (PBS, Lonza, Verviers, Belgium) with the yeast suspension (1:1) in the toxicity studies. […] The concentrations of the excipients were the same as in the respective NADES after evaporation of unbound water. The solutions were diluted totally 1:1 or 1:100 with PBS and yeast suspension in the toxicity studies. […] The overnight cultures were centrifuged (4000 g, 22° C., 10 min), the medium replaced and diluted with PBS to OD600 0.1.

[6] = test system: S. epidermidis (ATCC 35984); assay: Phototoxicity studies, blue light 9.5 J/cm^2 or dark (Example 7); type: cell-based, Staphylococcus epidermidis; conditions: ±SD, n = 4
Method: as §2
(§5) The concentrations were adjusted give a final concentration of 1-20 nM porphyrin in the bacterial suspension after dilution with PBS (see Table 9). Aqueous solutions of 2.7 M citric acid, 2.3 M xylitol, 2.5 M sucrose, 5 M choline chloride and pure NADES, respectively, were used to investigate the toxicity of the individual compounds and NADES without a photosensitiser. The concentrations of the excipients were the same as in the respective NADES after evaporation of unbound water. The solutions were diluted totally 1:200 (or more) in the bacterial studies.
(§6) The treatments were performed with four parallels.
(§7) Gram-positive bacteria are generally considered to be more susceptible to photodynamic therapy than Gram-negative bacteria. Therefore, S. epidermidis was incubated for 10 min (37° C.), irradiated with blue light for 10 min (9.5 J/cm^2) and incubated again for 10 min while K. pneumoniae and P. aeruginosa were incubated for 30 min (37° C.), irradiated with blue light for 30 min (27 J/cm^2) and incubated again for 30 min.

[7] = test system: P. aeruginosa (ATCC 9027); assay: Phototoxicity studies, blue light 27 J/cm^2 or dark (Example 7); type: cell-based, Pseudomonas aeruginosa
Method: as §2, §5, §6, §7

[8] = test system: K. pneumoniae (ATCC 31844); assay: as above; type: cell-based, Klebsiella pneumoniae; conditions: ±SD, n = 4
Method: as §2, §5, §6, §7

Structure (SMILES)	ENR [1] [kcal/mol]	toxicity to E. faecalis ([2]; 2.7 M solution, dilution ratios 1:1 up to 1:100)	toxicity to E. faecalis ([2]; dilution 1:200, total treatment 30 min)	toxicity / eradication of S. aureus ([3]; dilution 1:1 with bacterial suspension)	toxicity to S. aureus ([3]; dilution 1:100)	toxicity / eradication of E. coli ([4]; dilution 1:1, with and without blue light)	phototoxicity to E. coli ([4]; dilution 1:100 (up to 1:100) with PBS, blue light)	reduction in viable C. albicans after incubation in the dark ([5]; 2.7 M diluted 1:1)	reduction in viable C. albicans after light treatment ([5]; 2.7 M diluted 1:1, 27 J/cm^2 blue light) [%]	% survival (9.5 J/cm^2) ([6]; Dilution 1:200, blue light) [%]	% survival (dark) ([6]; Dilution 1:200, no irradiation) [%]	% survival (27 J/cm^2) ([7]; Dilution 1:400, blue light, ±SD, n = 4) [%]	% survival (dark) ([7]; Dilution 1:400, no irradiation, ±SD, n = 4) [%]	toxicity to P. aeruginosa ([7]; individual components of NADES 35, dilution 1:800)	% survival (27 J/cm^2) ([8]; Dilution 1:200, blue light) [%]	% survival (dark) ([8]; Dilution 1:200, no irradiation) [%]
CO [methanol]	51.9															
O [water]	48.2															
O=C(O)CC(O)(CC(=O)O)C(=O)O [Citric acid]		toxic	did not reduce the number of viable colony forming units	complete eradication	not toxic anymore	very toxic	killed all the bacteria present	slight, though significant, reduction	73±8	0.1 ± 0.0	0.7 ± 0.3	6 ± 2	37 ± 9	not toxic at all	145 ± 2	38 ± 18
